Test results from paper PMC5526615, “Phenotypic, chemical and functional characterization of cyclic nucleotide phosphodiesterase 4 (PDE4) as a potential anthelmintic drug target” (PLoS Neglected Tropical Diseases, 2017).
Several values for one entry are separate records, joined by “and”; a condition that tells them apart may be missing. Equal entries are not always repeated. Where two headings read alike, the source gives them in different places.

Key:
SmPDE4A = SmPDE4A (Schistosoma mansoni, UniProt A0A5K4ENE3); assay: biochemical
Experimental: Assays were performed in triplicate, and IC50 values were determined by non-linear regression analysis using the four-parameter logistic equation (Prism GraphPad version. 6.03).
Assay of PDE4 enzymatic activity was as described: huPDE4B2 was purchased from Proteros Biostructures, GmbH, Martinsried, Germany. […] The precipitate was collected by filtration onto Multi-Screen HTS FB plates (Millipore, Billerica, MA), washed and then dried for quantitation of radioactivity. For tests with PDE4 inhibitors, fifty percent inhibitory concentration (IC50) values were calculated based on a four-parameter logistic equation: the means and number of replicates are reported in Fig 4.

adult S. mansoni = assay: Wormassay adult worm motility; type: cell-based; details: Schistosoma mansoni, 1 h, read-out: Adult motility (-fold increase vs. DMSO controls)
Experimental: Adult schistosome screens were performed in 24-well plates (Corning Inc., cat. # 3544) using five worm pairs per well in a final volume of 2 ml of the above Basch medium. Compound was added in a volume of 1 μl DMSO such that the final concentration was 10 μM. Incubations were maintained for 3 days at 37°C under 5% CO2.
Parasite responses to chemical insult were adjudicated visually every 24 h (also at the 1 h time point for adults) using an inverted microscope and employed a constrained nomenclature of phenotype descriptors (e.g., rounding, degeneration, overactivity and slowed motility) as described. For adult parasites, in addition to observation-based annotations, we employed Wormassay to measure worm motility. Briefly, Wormassay comprises a commodity digital movie camera connected to an Apple personal computer that operates an open source software application to automatically process multiple wells (in 6-, 12- or 24-well plate formats). The application detects worm-induced changes in the occupation and vacancy of pixels between frames (outputted as an average ± S.D.). Worm motion was quantified using the “Consensus Voting Luminance Difference” option.

huPDE4B2 = molecular target: T1, huPDE4B2 (Homo sapiens, UniProt Q07343); assay: PDE4 inhibition assay, huPDE4B2 catalytic domain ([3H]-cAMP hydrolysis); type: biochemical; details: Anacor's in-house data, mean ± SD (number of assays) or two single assay values, read-out: Human PDE4B2 IC50
T1 construct: performed using the catalytic domains of (A) huPDE4B2 (NP_001032416.1); purchased Proteros Biostructures, GmbH, Martinsried, Germany
Experimental: Assays with each inhibitor were performed using the catalytic domains of (A) huPDE4B2 (NP_001032416.1) and (B) SmPDE4A (Smp_134140).
Assay of PDE4 enzymatic activity was as described [96]: huPDE4B2 was purchased from Proteros Biostructures, GmbH, Martinsried, Germany. […] The precipitate was collected by filtration onto Multi-Screen HTS FB plates (Millipore, Billerica, MA), washed and then dried for quantitation of radioactivity.

[1] = tested on: WT C. elegans (N2 Bristol); assay: C. elegans motility assay (body bends), wild type; type: cell-based, Caenorhabditis elegans; details: 100 μM, 16 h
Experimental: (§1) Compounds were directly added onto the OP50 food source at a 100 μM final concentration or the equivalent 0.2% DMSO as control. Previously synchronized early L4 stage larvae were cultivated on NGM plates with OP50 and compounds at 20°C for 16 h. For each experimental condition and transgenic line, motility was measured for 10–20 animals. The animals were washed twice in S basal buffer, transferred onto a new NGM plate in the absence of bacteria. After a brief period of recovery from this manipulation, locomotion was measured by counting the number of body bends in 30 s intervals under a stereoscope.

[2] = tested on: pde4(ce268);smpde4a(a) and pde4(ce268);smpde4a(b) transgenic C. elegans; assay: C. elegans motility assay (body bends), transgenic lines expressing smpde4a; type: cell-based, Caenorhabditis elegans; details: 100 μM, 16 h
Experimental: To generate C. elegans that carry the SmPDE4A transgene, the plasmids described above were purified and microinjected into the gonads of both WT (N2) and pde4(ce268) mutant strains at a concentration of 50 ng/μl. The injected worms (P0) were transferred to individual freshly seeded bacteria plates and allowed to reproduce. F1 progeny were screened for evidence of transgene expression based on the GFP marker. Each transgenic F1 was then singled onto a new plate. This process was repeated until lines that stably transmit the transgene were established in WT or pde(ce268) animal backgrounds. To verify the consistency of GFP expression in the transgenic lines, 10–20 transgenic animals from each line were examined using a Zeiss Axioplan II stereoscope equipped with a FITC/GFP filter (emission 500–515 nm).
as §1, with “The animals were washed twice in S basal buffer, transferred onto a new NGM plate in the absence of bacteria.” left out

huPDE4B = huPDE4B ref 96; cited from earlier work
huPDE4A = huPDE4A ref 96; cited from earlier work
huPDE4D = huPDE4D ref 96; cited from earlier work
[3] = recombinant catalytic domain, mean ± SD (number of assays) or two single assay values, read-out: SmPDE4A IC50
[4] = SmPDE4A IC50, recombinant catalytic domain, mean ± SD (number of assays) or two single assay values

T1 sequence (Q07343 324-659): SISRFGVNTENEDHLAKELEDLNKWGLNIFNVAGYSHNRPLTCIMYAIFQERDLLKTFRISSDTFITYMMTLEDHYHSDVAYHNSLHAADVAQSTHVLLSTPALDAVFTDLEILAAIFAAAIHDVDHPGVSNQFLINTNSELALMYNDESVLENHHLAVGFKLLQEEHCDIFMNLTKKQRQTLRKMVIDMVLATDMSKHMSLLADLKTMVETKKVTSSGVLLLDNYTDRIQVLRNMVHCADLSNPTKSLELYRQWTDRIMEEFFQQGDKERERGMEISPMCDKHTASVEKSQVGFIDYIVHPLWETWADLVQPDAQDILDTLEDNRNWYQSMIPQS
SmPDE4A, sequence (A0A5K4ENE3 entry or part of it): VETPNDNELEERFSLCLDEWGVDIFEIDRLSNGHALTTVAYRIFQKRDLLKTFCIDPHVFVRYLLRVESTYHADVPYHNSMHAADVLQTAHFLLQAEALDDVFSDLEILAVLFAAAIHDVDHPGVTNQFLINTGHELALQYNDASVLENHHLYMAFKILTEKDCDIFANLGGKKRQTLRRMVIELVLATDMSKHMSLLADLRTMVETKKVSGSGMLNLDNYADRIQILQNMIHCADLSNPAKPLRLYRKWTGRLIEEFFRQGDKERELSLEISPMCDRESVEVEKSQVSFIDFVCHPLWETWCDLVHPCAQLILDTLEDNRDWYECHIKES

IC50 (SmPDE4A; [3])	IC50 (huPDE4B2)	SMILES	fold induction at 10 µM (adult S. mansoni; Wormassay, 10 μM after 1 h)	further results
14.7 ± 6.4 nM	30 ± 26.7 nM	CN(C)C(=O)CCCOc1nc(Oc2ccc3c(c2)COB3O)ccc1C#N [Compound 3]	7.1	
415 nM	43.6 nM and 65 nM	CC(C)S(=O)(=O)c1ccc(Oc2ccc3c(c2)COB3O)cc1 [Compound 6]	1.5	
123 nM	19.3 nM and 32.4 nM	N#Cc1ccc(Oc2ccc3c(c2)COB3O)cc1O [Compound 7]	1.1	
		CC(=O)CCCOc1nc(Oc2ccc3c(c2)COB3O)c(Cl)cc1C#N [Compound 2]	7.9	motility relative to the DMSO control [1]: increased motility
		O=C(Nc1c(Cl)cncc1Cl)c1ccc(OC(F)F)c(OCC2CC2)c1 [Roflumilast, roflumilast, reference compound]		IC50 (SmPDE4A; [4]): 11.3 nM and 18 nM and 11 nM
12 ± 6.2 nM	3.8 ± 2.7 nM	CC(C)OCCOc1nc(Oc2ccc3c(c2)COB3O)ccc1C#N [Compound 4]	5.7	motility relative to the DMSO control [1]: did not
		CC(=O)CCCOc1nc(Oc2cc(F)c3c(c2)COB3O)c(Cl)cc1C#N [Compound 1]	9.9	
		COc1ccc(C2CNC(=O)C2)cc1OC1CCCC1 (stereo not shown) [Rolipram, rolipram, reference compound]		IC50 (SmPDE4A; recombinant catalytic domain, read-out: SmPDE4A IC50): > 10000 nM; motility of mutant lines carrying the smpde4a transgene [2]: increased motility significantly
		Nc1ncnc2c1ncn2[C@@H]1O[C@@H]2COP(=O)(O)O[C@H]2[C@H]1O [cAMP, cyclic adenosine monophosphate]		Km (huPDE4B): 2.25 µM; Km (huPDE4A): 0.98 µM; Km (huPDE4D): 7.81 µM

SMILES	IC50 (SmPDE4A; [3])	IC50 (huPDE4B2)	fold induction at 10 µM (adult S. mansoni; Wormassay, 10 μM after 1 h)	further results
N#Cc1ccc(Oc2ccc3c(c2)COB3O)cc1C(F)(F)F [Compound 5]		68.9 nM and 22.1 nM		IC50 (SmPDE4A; [4]): 47 ± 27.4 nM; fold induction at 10 µM (adult S. mansoni): 3.9
